Measurements published in PubChem BioAssay AID1259345.
Active and inactive are the calls of the source.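 How the source made its calls: active means IC50 below a set limit; inactive means the rest.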

Molecular target: A2780 TERC promoter luciferase reporter, 16 h
Assay: modulation of TERC promoter-driven luciferase – cell-based, luciferase reporter, human, SAR follow-up (AID 1259345)

Row | IC50 | Structure (SMILES)
1 | inactive | Cc1nc2cc(-c3ccc(C#CCO)cc3)nn2c(C)c1CCC(=O)O
2 | inactive | Cc1nc2cc(-c3cccc(Br)c3)nn2c(C)c1CCC(=O)O
